Results on 20 compounds are retold here after patent US20230113037A1 (Bayer Aktiengesellschaft, priority 2019, published 2023).

The structures appear in SMILES notation. Several values for one entry are separate records, joined by “and”; a condition that tells them apart may be missing. Identical values can stand only once. Like-named read-outs stand apart in the source and are kept apart here.

The target of assay [1] is T1, AHR (Homo sapiens, UniProt P35869).
T1 construct: U87 MG glioblastoma cells (ATCC #HTB-14) endogenously expressing AHR; endogenous in cells; host or cells: U87 MG glioblastoma cells (ATCC #HTB-14)
T1 sequence (P35869 11-848): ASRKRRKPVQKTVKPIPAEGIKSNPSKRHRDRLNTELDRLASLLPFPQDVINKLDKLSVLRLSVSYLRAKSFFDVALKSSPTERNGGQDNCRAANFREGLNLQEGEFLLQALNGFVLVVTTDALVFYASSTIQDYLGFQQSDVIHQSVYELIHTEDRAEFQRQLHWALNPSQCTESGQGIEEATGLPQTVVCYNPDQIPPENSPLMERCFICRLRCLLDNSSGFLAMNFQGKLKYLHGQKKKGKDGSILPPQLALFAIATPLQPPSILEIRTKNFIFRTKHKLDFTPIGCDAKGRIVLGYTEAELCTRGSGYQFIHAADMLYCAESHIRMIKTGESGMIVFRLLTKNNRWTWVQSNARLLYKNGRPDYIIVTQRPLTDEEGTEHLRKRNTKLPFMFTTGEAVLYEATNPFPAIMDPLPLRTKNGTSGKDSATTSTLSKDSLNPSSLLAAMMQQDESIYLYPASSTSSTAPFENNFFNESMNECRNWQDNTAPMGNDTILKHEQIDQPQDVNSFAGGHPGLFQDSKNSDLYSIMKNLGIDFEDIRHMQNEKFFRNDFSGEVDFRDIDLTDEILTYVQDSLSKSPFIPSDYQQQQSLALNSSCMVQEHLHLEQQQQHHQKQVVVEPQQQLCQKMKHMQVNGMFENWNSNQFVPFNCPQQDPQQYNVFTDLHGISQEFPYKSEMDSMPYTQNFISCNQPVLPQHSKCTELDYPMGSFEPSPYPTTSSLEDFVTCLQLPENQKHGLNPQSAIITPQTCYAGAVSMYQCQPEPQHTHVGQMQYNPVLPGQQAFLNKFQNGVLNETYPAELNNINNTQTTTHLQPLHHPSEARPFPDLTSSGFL
Nature of the assay: In vitro assay 1: antagonism in human cell line (AHR transactivation, firefly luciferase reporter, kynurenic acid prestimulated). It is filed as cell-based. The settings on record: AHR Antagonism Human IC50 [M]. Put shortly: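 Antagonism measured as loss of kynurenic acid-driven firefly luciferase from DRE reporter in stably transfected U87 MG cells; constitutive Renilla signal monitors cytotoxicity. Positive/negative control normalization, staurosporine 5 μM with 150 μM kynurenic acid as inhibition control; replicates given as mean or median.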

The target of assay [2] is T2, AHR (Mus musculus, UniProt P30561).
T2 sequence (P30561 1-848 P471L/N533S/M589L): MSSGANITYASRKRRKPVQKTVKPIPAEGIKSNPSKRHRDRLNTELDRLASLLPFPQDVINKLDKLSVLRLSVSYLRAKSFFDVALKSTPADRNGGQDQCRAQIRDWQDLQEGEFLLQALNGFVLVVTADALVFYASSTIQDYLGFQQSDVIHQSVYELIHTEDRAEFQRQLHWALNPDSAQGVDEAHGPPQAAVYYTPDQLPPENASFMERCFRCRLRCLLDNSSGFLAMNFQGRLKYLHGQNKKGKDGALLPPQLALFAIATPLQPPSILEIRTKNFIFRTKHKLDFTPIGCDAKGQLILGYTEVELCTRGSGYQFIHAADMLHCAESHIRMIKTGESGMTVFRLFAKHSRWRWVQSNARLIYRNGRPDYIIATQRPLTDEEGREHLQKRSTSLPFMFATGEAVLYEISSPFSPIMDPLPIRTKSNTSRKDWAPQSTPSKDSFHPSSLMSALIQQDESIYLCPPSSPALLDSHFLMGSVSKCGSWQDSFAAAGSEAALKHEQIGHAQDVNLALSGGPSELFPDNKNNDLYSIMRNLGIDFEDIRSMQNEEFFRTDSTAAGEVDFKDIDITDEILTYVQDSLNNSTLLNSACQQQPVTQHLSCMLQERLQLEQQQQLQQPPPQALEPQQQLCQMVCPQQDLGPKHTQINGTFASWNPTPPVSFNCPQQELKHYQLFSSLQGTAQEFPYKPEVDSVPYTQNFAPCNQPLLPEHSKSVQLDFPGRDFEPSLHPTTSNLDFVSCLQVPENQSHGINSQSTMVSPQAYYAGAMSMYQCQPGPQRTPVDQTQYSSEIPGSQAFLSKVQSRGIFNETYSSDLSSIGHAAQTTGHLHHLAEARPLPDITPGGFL
Briefly: In vitro assay 3: antagonism in mouse cell line (AHR transactivation, firefly luciferase reporter, kynurenic acid prestimulated). It is filed as cell-based. The method, boiled down: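 Kynurenic acid-prestimulated mouse reporter cells; stable AHR-inducible firefly luc construct with DRE sites in promoter. No-agonist wells = positive inhibition ctrl. Luminescence normalized to pos/neg ctrls; n>1 reported as mean or median.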
(In general: In a reporter assay the amount or activity of a reporter protein is the signal.)

Where [3] appears, read: mouse Hepa 1c1c7 cells, 200 μM kynurenic acid, 20 hours, read-out: AHR Antagonism Mouse IC50.
Setting [4] is: Hepa 1c1c7 cells, 200 μM kynurenic acid, 20 hours, firefly luciferase reporter, read-out: AHR Antagonism Mouse IC50.

On to `COc1ccc(-c2nc3c4cccc(C5(C)CC5)c4nc(N[C@@H]4CCCCNC4=O)n3n2)cc1` [Example 399, (3R)-3-{[2-(4-methoxyphenyl)-7-(1-methylcyclopropyl)[1,2,4]triazolo[1,5-c]quinazolin-5-yl]amino}azepan-2-one], for which the figures for the IC50 in assay [1] and in assay [2] (setting [3]) were 1.85e-08 M and 55.7 nM, respectively.
On the same counts, the results for `CC[C@@H](Nc1nc2ccccc2c2nc(-c3csc(C)c3)nn12)C(N)=O` [Example 358] are 3.15e-09 M and 1.78 nM.
For `COc1ccc(-c2nc3c4cccc(Br)c4nc(N[C@H](C)C(=O)NCCN4CCN(C)CC4)n3n2)cc1` [Example 780, N^2-[7-bromo-2-(4-methoxyphenyl)[1,2,4]triazolo[1,5-c]quinazolin-5-yl]-N-[2-(4-methylpiperazin-1-yl)ethyl]-D-alaninamide], in that order: 4.91e-09 M and 5.55 nM.
For `CS(=N)(=O)c1ccc(-c2nc3c4ccccc4nc(N[C@@H]4CCCCNC4=O)n3n2)cc1` (stereo partly drawn) [Example 306, (3R)-3-({2-[4-(S-methylsulfonimidoyl)phenyl][1,2,4]triazolo[1,5-c]quinazolin-5-yl}amino)azepan-2-one], in that order: 1.09e-07 M and 31.2 nM.
For `COc1ccc(-c2nc3c4cccc(Br)c4nc(N[C@H]4CCCCNC4=O)n3n2)c(C(F)(F)F)c1` [Example 570, (3S)-3-({7-bromo-2-[4-methoxy-2-(trifluoromethyl)phenyl][1,2,4]triazolo[1,5-c]quinazolin-5-yl}amino)azepan-2-one], the IC50 – broadly, the concentration that inhibits the measured activity by half – in assay [1] came out at 8.08e-07 M; in assay [2] (setting [3]), 80.7 nM.
Consider `N#Cc1ccc(-c2nc3c4cccc(Br)c4nc(N[C@@H]4CNCCNC4=O)n3n2)cc1` [Example 717, 4-(7-bromo-5-{[(6R)-5-oxo-1,4-diazepan-6-yl]amino}[1,2,4]triazolo[1,5-c]quinazolin-2-yl)benzonitrile], for which the IC50 in assay [1] is 7.05e-10 M; in assay [2] (setting [3]) it was 0.95 nM.
On to `NC(=O)[C@@H](CO)Nc1nc2ccccc2c2nc(-c3ccccc3)nn12` [Example 2, N^2-(2-phenyl[1,2,4]triazolo[1,5-c]quinazolin-5-yl)-D-serinamide], for which the IC50 in assay [1] is 2.4e-08 M; in assay [2] (setting [3]), 68.6 nM.
On the same counts, the results for `CCc1noc(-c2nc3c4ccccc4nc(N[C@@H]4CCCCNC4=O)n3n2)n1` [Example 132, (3R)-3-{[2-(3-ethyl-1,2,4-oxadiazol-5-yl)[1,2,4]triazolo[1,5-c]quinazolin-5-yl]amino}azepan-2-one] are 2.15e-08 M and 26.3 nM.
On to `N#Cc1cccc2c1nc(N[C@@H]1CNCCNC1=O)n1nc(-c3cnn(C4CCC4)c3)nc21` [Example 933, 2-(1-cyclobutyl-1H-pyrazol-4-yl)-5-{[(6R)-5-oxo-1,4-diazepan-6-yl]amino}[1,2,4]triazolo[1,5-c]quinazoline-7-carbonitrile], for which the IC50 in assay [1] (firefly luciferase reporter) is 7.39e-08 M; in assay [2] (setting [4]) it was 138 nM.
For the compound `CCc1nn(C2CC2)cc1-c1nc2c3cccc(C(F)(F)F)c3nc(N[C@@H]3CCCCNC3=O)n2n1` [Example 749, (3R)-3-{[2-(1-cyclopropyl-3-ethyl-1H-pyrazol-4-yl)-7-(trifluoromethyl)[1,2,4]triazolo[1,5-c]quinazolin-5-yl]amino}azepan-2-one], the IC50 was determined as 1.54e-09 M in assay [1] and 2.12 nM in assay [2] (setting [3]).
For `CC(C)c1cccc2c1nc(N[C@@H]1CCCCNC1=O)n1nc(-c3cccc(F)c3)nc21` [Example 394, (3R)-3-{[2-(3-Fluorophenyl)-7-(propan-2-yl)[1,2,4]triazolo[1,5-c]quinazolin-5-yl]amino}azepan-2-one], in that order: 1.16e-08 M and 30.9 nM.
Consider `COc1ccc(-c2nc3c4c(C5CNC5)cccc4nc(N[C@@H]4CCCCNC4=O)n3n2)cc1` [Example 647, (3R)-3-{[10-(azetidin-3-yl)-2-(4-methoxyphenyl)[1,2,4]triazolo[1,5-c]quinazolin-5-yl]amino}azepan-2-one], for which the IC50 in assay [1] is 6.34e-06 M; in assay [2] (setting [3]), > 20000 nM and 12800 nM.
Regarding `O=C1NCCCC[C@H]1Nc1nc2ccccc2c2nc(-c3cnn(C4CCC4)c3)nn12` [Example 603, (3R)-3-{[2-(1-cyclobutyl-1H-pyrazol-4-yl)[1,2,4]triazolo[1,5-c]quinazolin-5-yl]amino}azepan-2-one], the IC50 amounted to 4.08e-09 M in assay [1] and 3.39 nM in assay [2] (setting [3]).
Turning to `CN(C)Cc1noc(-c2nc3c4ccccc4nc(N[C@@H]4CCCCNC4=O)n3n2)n1` [Example 304, (3R)-3-[(2-{3-[(Dimethylamino)methyl]-1,2,4-oxadiazol-5-yl}[1,2,4]triazolo[1,5-c]quinazolin-5-yl)amino]azepan-2-one], the IC50 was determined as 2.86e-06 M in assay [1] and 1830 nM in assay [2] (setting [3]).
For `CC(C)Oc1ccc(-c2nc3c4ccccc4nc(N[C@@H]4CCCCNC4=O)n3n2)cc1` [Example 613, (3R)-3-[(2-{4-[(propan-2-yl)oxy]phenyl}[1,2,4]triazolo[1,5-c]quinazolin-5-yl)amino]azepan-2-one], in that order: 1.17e-09 M and 0.799 nM.
Consider `COc1cccc(-c2nc3c4ccccc4nc(N[C@@H](C)C(N)=O)n3n2)c1` (single isomer, unassigned) [Example 86, N^2-[2-(3-methoxyphenyl)[1,2,4]triazolo[1,5-c]quinazolin-5-yl]alaninamide], for which the IC50 in assay [1] is 5.1e-09 M; in assay [2] (setting [3]) it was 5.66 nM.
Consider `Cc1c(-c2nc3c4cccc(Br)c4nc(N[C@@H]4CCCCNC4=O)n3n2)cnn1C` [Example 823, (3R)-3-{[7-bromo-2-(1,5-dimethyl-1H-pyrazol-4-yl)[1,2,4]triazolo[1,5-c]quinazolin-5-yl]amino}azepan-2-one], for which the half-inhibitory concentration (IC50) in assay [1] (firefly luciferase reporter) is 2.13e-09 M; in assay [2] (setting [4]), 3.01 nM.
Turning to `CC(C)(C)c1noc(-c2nc3c4ccccc4nc(N[C@@H]4CCCCNC4=O)n3n2)n1` [Example 134, (3R)-3-{[2-(3-tert-butyl-1,2,4-oxadiazol-5-yl)[1,2,4]triazolo[1,5-c]quinazolin-5-yl]amino}azepan-2-one], the 50% inhibitory concentration (IC50) was found to be 8.35e-08 M in assay [1] and 86.8 nM in assay [2] (setting [3]).
As to `CC(C)n1cc(-c2nc3c4cccc(C#N)c4nc(N[C@@H]4CNCCNC4=O)n3n2)cn1` [Example 931, 5-{[(6R)-5-oxo-1,4-diazepan-6-yl]amino}-2-[1-(propan-2-yl)-1H-pyrazol-4-yl][1,2,4]triazolo[1,5-c]quinazoline-7-carbonitrile], the values for the IC50 in assay [1] (firefly luciferase reporter) and in assay [2] (setting [4]) were 1.3e-07 M and 297 nM, respectively.
Take `COc1cccc(-c2nc3c4c(C)cccc4nc(NC4CCNC4=O)n3n2)c1` (single isomer, unassigned) [Example 190, 3-{[2-(3-methoxyphenyl)-10-methyl[1,2,4]triazolo[1,5-c]quinazolin-5-yl]amino}pyrrolidin-2-one]: the 50% inhibitory concentration (IC50) in assay [1] is 1.54e-07 M; in assay [2] (read-out: AHR Antagonism Mouse IC50, mouse Hepa 1c1c7 cells, 200 μM kynurenic acid, 20 hours), 252 nM.
